This note sets out measurements from patent publication US20240246995A1, “PYRIMIDINONE DERIVATIVE AND PREPARATION METHOD THEREFOR, PHARMACEUTICAL COMPOSITION, AND USE” (SHANGHAI SIMR BIOTECHNOLOGY CO., LTD., priority 2021, published 2024).

SMILES strings stand for the structures.

The target in this experiment is T1, Lipoprotein-Related Phospholipase A2 (Lp-PLA2) in Human Plasma (Homo sapiens, UniProt Q13093).
T1 construct: 40 μL of equally-divided and thawed mixed human plasma is pre-added; from tissue; host or cells: mixed (pooled) human plasma
T1 sequence (Q13093 22-441): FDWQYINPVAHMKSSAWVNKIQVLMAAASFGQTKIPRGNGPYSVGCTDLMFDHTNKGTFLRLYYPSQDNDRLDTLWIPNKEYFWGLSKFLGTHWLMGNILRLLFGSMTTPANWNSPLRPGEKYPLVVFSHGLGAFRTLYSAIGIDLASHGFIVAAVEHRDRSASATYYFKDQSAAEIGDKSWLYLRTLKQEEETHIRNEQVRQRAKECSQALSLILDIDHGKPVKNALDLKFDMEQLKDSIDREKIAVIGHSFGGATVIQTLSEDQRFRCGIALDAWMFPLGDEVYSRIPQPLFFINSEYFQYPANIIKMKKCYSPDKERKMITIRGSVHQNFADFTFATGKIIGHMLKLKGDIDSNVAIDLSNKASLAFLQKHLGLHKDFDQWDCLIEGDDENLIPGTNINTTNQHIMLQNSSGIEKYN
The experiment can be described thus: Determination of Lp-PLA2 in human plasma (Thio-PAF assay). It counts as biochemical. Conditions: mixed human plasma, 2-thio-PAF substrate, 30 minutes pre-incubation at room temperature. The text has this: Determination of Lipoprotein-Related Phospholipase A2 (Lp-PLA2) in Human Plasma.
Human plasma determination utilizes a thioester analogue of phosphatidylcholine (PAF), where hydrolysis leads to the formation of phospholipids containing free thiol groups. The amount of the thiol groups is continuously determined by reacting with CPM (7-diethylamino-3-(4′-maleimidophenyl)-4-methylcoumarin), which is maleimide with increased fluorescence after Michael addition of the thiol groups. This determination can detect the activity of Lp-PLA2 in human plasma, for example, determined by the specific inhibition of the Lp-PLA2 inhibitors.
Thio-PAF determination, as quenched 75 μL determination, is carried out. A compound source plate is prepared by preparing a 1:3 (volume) series of diluents of each compound in pure DMSO on a 96-well microplate. A Rainin multi-channel pipette is used to transfer 3 μL of a compound on the compound source plate into a 96-well microplate where 57 μL of a determination buffer is pre-added, and the compound on the source plate is diluted by 20 folds. The above determination buffer contains 50 mM HEPES (pH 7.4), 150 mM NaCl, and 1 mM CHAPS. A Rainin multi-channel pipette is used to transfer 1 μL of the compound subjected to 20-fold dilution into a 96-well Greiner 655076 (black) microplate where 40 μL of equally-divided and thawed mixed human plasma is pre-added. The plate is oscillated for 20 seconds in an Elisa plate oscillator to be mixed evenly. After 30 minutes of pre-incubation at the room temperature, a Rainin multi-channel pipette is used to add 10 μL of a substrate solution to a 96-well Greiner 655076 (black) microplate, and the substrate solution contains 2.5 mM 2-thio-PAF [from ethanol mother liquor], 32 μM CPM [from DMSO mother liquor] and 3.2 mM NEM (N-ethylmaleimide) [newly prepared in DMSO for each experiment] in a determination buffer composed of 50 mM HEPES (pH 7.4), 150 mM NaCl, and 1 mM CHAPS. After 2 minutes, 25 μL of a 5% trifluoroacetic acid (TFA) aqueous solution is used for quenching the reaction. The plate is centrifuged at 2000 rpm for 1 minute. A Biotek Synergy H1 (H1MF) Elisa reader is used to read the plate at ex:380/em:485. GraphPad Prism 6.0 and Excel are used for IC50 data, curve, and QC analysis.
Turning to `O=c1nc(OCc2cc(F)c(Oc3cnc(C(F)(F)F)nc3)c(F)c2)cc2n1CCC13CC(CN21)C3` [Example 20, 2-((3,5-difluoro-4-((2-(trifluoromethyl)pyrimidin-5-yl)oxy)benzyl)oxy)-6,7,9,10-tetrahydro-4H,8H-7a,9-methano-pyrimido[1,6-a] pyrrolo[1,2-c] pyrimidine-4-one], the IC50 was determined as 37.5 nM.

For the compound `O=c1nc(OCc2cc(F)c(Oc3ccnc(OC(F)(F)F)c3)c(F)c2)cc2n1CC[C@]13CO[C@H](CN21)C3` [Example 7], the IC50 amounted to 3.6 nM.

`O=c1nc(OCCc2ccc(Oc3ccc(Cl)c(C(F)(F)F)c3)cc2)cc2n1CCC13CC(CN21)C3` [Example 22, 2-(4-(4-chloro-3-(trifluoromethyl)phenoxy)phenyl-ethoxy)-6,7,9,10-tetrahydro-4H,8H-7a,9-methano-pyrimido [1,6-a]pyrrolo[1,2-c] pyrimidine-4-one]: the IC50 amounted to 120 nM.

On to `CCC12CCCN1c1cc(OCc3cc(F)c(Oc4ccnc(C(F)(F)F)c4)c(F)c3)nc(=O)n1CC2` (stereo not drawn) [Example 38, 2-((3,5-difluoro-4-((2-(trifluoromethyl)pyrid-4-yl)oxy)benzyl)oxy)-7a-ethyl-6,7,7a,8,9,10-hexahydro-4H-pyrimido[1,6-a] pyrrolo[1,2-c] pyrimidine-4-one], for which the IC50 is 8.1 nM.

Take `COc1c(OCc2cc(F)c(Oc3ccnc(OC(F)(F)F)c3)c(F)c2)nc(=O)n2c1N1C[C@@H]3C[C@@]1(CC2)CO3` [Example 63]: the IC50 stood at 5.5 nM.

Turning to `COc1c(OCc2ccc(Oc3ccnc(C(F)(F)F)c3)c(F)c2)nc(=O)n2c1N1CCCC[C@H]1CC2` [Example 48], the IC50 came to 5.1 nM.

Take `Cc1cc(Oc2c(F)cc(COc3cc4n(c(=O)n3)CC[C@]35CO[C@H](CN43)C5)cc2F)ccn1` [Example 4]: the IC50 is 11.2 nM.

In the case of `O=c1nc(OCc2cc(F)c(Oc3ccc(Cl)c(C(F)(F)F)c3)c(F)c2)cc2n1CCC13CC(CN21)C3` [Example 14, 2-((4-(4-chloro-3-(trifluoromethyl)phenoxy)-3,5-di-fluorobenzyl)oxy)-6,7,9,10-tetrahydro-4H,8H-7a,9-methanopyrimido [1,6-a]pyrrolo[1,2-c] pyrimidine-4-one], the IC50 was determined as 8.8 nM.

Take `Cc1cc(Oc2c(F)cc(COc3cc4n(c(=O)n3)CCC3(C)CCCN43)cc2F)ccn1` (stereo not drawn) [Example 35, 2-((3,5-fluoro-4-((2-methylpyrid-4-yl)oxy)benzyl)oxy)-7a-methyl-6,7,7a, 8,9,10-hexahydro-4H-pyrimidinyl [1,6-a]pyrrolo[1,2-c] pyrimidine-4-one]: the IC50 was 23.2 nM.

For `O=c1nc(OCCc2ccc(Oc3ccc(Cl)c(C(F)(F)F)c3)cc2)cc2n1CCC1CCCCN21` (stereo not drawn) [Example 46, 2-(4-(4-chloro-3-(trifluoromethyl)phenoxy)phenylethoxy)-7,7a,8,9,10,11-hexahydro-4H, 6H-pyridyl[1,2-c] pyrimidinyl[1,6-a] pyrimidine-4-one], the IC50 is 220 nM.

In the case of `O=c1nc(OCCc2ccc(Oc3ccc(Cl)c(C(F)(F)F)c3)cc2)cc2n1CC[C@@]13CO[C@@H](CN21)C3` [Example 28, (7aR,10R)-2-(4-(4-chloro-3-(trifluoro-methyl)phenoxy)phenylethoxy)-6,7, 10,11-tetrahydro-4H,8H-7a,10-methanopyrimido [6′,1′:2,3] pyrimido[6,1-c] [1,4]oxazin-4-one], the concentration for half-maximal inhibition (IC50) was 13.3 nM.

Take `O=c1nc(OCc2cc(F)c(Oc3ccnc(C(F)(F)F)c3)c(F)c2)cc2n1CCC13CC(CN21)C3` [Example 12, 2-((3,5-difluoro-4-((2-(trifluoromethyl)pyrid-4-yl)oxy)benzyl)oxy)-6,7,9,10-tetrahydro-4H, 8H-7a,9-methano-pyrimido[1,6-a] pyrrolo[1,2-c]pyri-midine-4-one]: the IC50 came to 8.3 nM.

With `Cc1cc(Oc2c(F)cc(COc3cc4n(c(=O)n3)CCC3(C)CCCCN43)cc2F)ccn1` (stereo not drawn) [Example 50, 2-((3,5-difluoro-4-((2-methylpyrid-4-yl)oxy)benzyl)oxy)-7a-methyl-7,7a,8,9,10,11-hexahydro-4H,6H-pyridino [1,2-c]pyrimidine [1,6-a]pyrimidine-4-one], the IC50 stood at 12.9 nM.

With `O=c1nc(OCc2cc(F)c(Oc3ccc(Cl)c(C(F)(F)F)c3)c(F)c2)cc2n1CCC1CCCN21` (stereo not drawn) [Example 33, 2-((4-(4-chloro-3-(trifluoromethyl)phenoxy)-3,5-di-fluorobenzyl)oxy)-6,7,7a,8,9,10-hexahydro-4H-pyrimidinyl [1,6-a]pyrrolo [1,2-c]pyrimidine-4-one], the IC50 came to 24.7 nM.

In the case of `O=c1nc(OCCc2ccc(Oc3ccc(Cl)c(C(F)(F)F)c3)cc2)cc2n1CC[C@]13CO[C@H](CN21)C3` [Example 11, (7aS, 10S)-2-(4-(4-chloro-3-(trifluoro-methyl)phenoxy)phenylethoxy)-6,7, 10,11-tetrahydro-4H,8H-7a,10-methanopyrimido [6′,1′:2,3]pyrimido [6,1-c][1,4]oxazin-4-one], the IC50 turned out to be 8.9 nM.

Turning to `N#Cc1cc(COc2cc3n(c(=O)n2)CC[C@]24CO[C@H](CN32)C4)ccc1Oc1cccc(C(F)(F)F)c1` [Example 5], the half-inhibitory concentration (IC50) stood at 4.5 nM.

Consider `O=c1nc(OCc2ccc(Oc3ccnc(C(F)(F)F)c3)c(F)c2)cc2n1CC[C@@H]1CCCCN21` [Example 47, (S)-2-((3-fluoro-4-((2-(trifluoromethyl)pyrid-4-yl)oxy)benzyl)oxy)-7,7a, 8,9,10,11-hexahydro-4H,6H-pyridino[1,2-c] pyrimidine[1,6-a] pyrimidine-4-one], for which the IC50 stood at 14.6 nM.

On to `O=c1nc(OCc2cc(F)c(Oc3ccc(Cl)c(C(F)(F)F)c3)c(F)c2)cc2n1CCC1CCCCN21` (stereo not drawn) [Example 43, 2-((4-(4-chloro-3-(trifluoromethyl)phenoxy)-3,5-di-fluorobenzyl)oxy)-7,7a,8,9,10,11-hexahydro-4H,6H-pyri-dyl[1,2-c]pyrimido [1,6-a]pyrimidine-4-one], for which the IC50 is 11.9 nM.

For `O=c1nc(OCc2ccc(Oc3ccnc(C(F)(F)F)c3)c(F)c2)c(Cl)c2n1CC[C@]13CO[C@H](CN21)C3` [Example 58, (7aS,10S)-1-chloro-2-((3-fluoro-4-((2-(trifluoromethyl)pyrid-4-yl)oxy)benzyl)oxy)-6,7,10, 11-tetrahydro-4H, 8H-7a,10-methyl-pyrimidinyl[6′,1′: 2,3]pyrimidinyl [6,1-c][1,4]oxazin-4-one], the IC50 amounted to 3.4 nM.

`O=c1nc(OCc2cc(F)c(Oc3cnc(C(F)(F)F)nc3)c(F)c2)cc2n1CC[C@@]13CO[C@@H](CN21)C3` [Example 27]: the IC50 was 4.6 nM.

As for `N#Cc1cc(COc2cc3n(c(=O)n2)CCC24CC(CN32)C4)ccc1Oc1cccc(C(F)(F)F)c1` [Example 16], the 50% inhibitory concentration (IC50) stood at 9.2 nM.

In the case of `CCC12CCCN1c1cc(OCc3ccc(Oc4cccc(C(F)(F)F)c4)c(C#N)c3)nc(=O)n1CC2` (stereo not drawn) [Example 40], the IC50 is 10.7 nM.

For the compound `O=c1nc(OCCc2ccc(Oc3ccc(Cl)c(C(F)(F)F)c3)cc2)cc2n1CCC1COCCN21` (stereo not drawn) [Example 56, 2-(4-(4-chloro-3-(trifluoromethyl)phenoxy)phenyl-ethoxy)-6,7,7a,8,10,11-hexahydro-4H-pyrimidinyl [6′,1′:2,3] pyrimidinyl[6,1-c] [1,4]oxazin-4-one], the IC50 turned out to be 20.1 nM.

Take `COc1c(OCc2ccc(Oc3ccnc(C(F)(F)F)c3)c(F)c2)nc(=O)n2c1N1C[C@@H]3C[C@@]1(CC2)CO3` [Example 62, (7aS,10S)-2-((3-fluoro-4-((2-(trifluoromethyl)pyrid-4-yl)oxy)benzyl)oxy)-1-methoxy-6,7,10, 11-tetrahydro-4H, 8H-7a,10-methyl-pyrimidinyl [6′,1′:2,3] pyrimidinyl[6,1-c] [1,4]oxazin-4-one]: the IC50 was found to be 5.2 nM.
